Results published in ChEMBL document CHEMBL1150949, “Antimalarial principles from Artemisia indica” (J Nat Prod, 1998).

The compounds below were run on Plasmodium falciparum (assay: Antimalarial activity against Plasmodium falciparum K1 by [3H]hypoxanthine uptake).
Assay type: functional, organism-based

| Structure (SMILES) | EC50 |
| --- | --- |
| C=C(C)[C@H](CC=C(C)C)Cc1c(O)cc(O)c2c1O[C@H](c1c(O)cccc1O)CC2=O [EXIGUAFLAVONE A] | 10.8 µM |
| C=C(C)[C@H](CC=C(C)C)Cc1c(OC)cc(O)c2c1O[C@H](c1c(O)cccc1O)CC2=O [EXIGUAFLAVONE B] | 16 µM |
| Oc1ccc(-c2cc3cc4c(cc3o2)OCO4)c(O)c1 | 100 µM |
| Oc1ccc2c(c1)OC[C@@H]1c3cc4c(cc3O[C@H]21)OCO4 [(+)-MAACKIAIN] | 165 µM |

Results, then the compound that gave them:

| EC50 | Structure (SMILES) |
| --- | --- |
| 3.49 µg/mL | COc1cc(O)c(Cc2ccccc2O)c(O)c1C(=O)CCc1ccccc1 [UVARETIN] |
| 4.2 µg/mL | COc1c(Cc2ccccc2O)c(O)c(Cc2ccccc2O)c(O)c1C(=O)CCc1ccccc1 [DIUVARETIN] |
